{"source": "paper PMC4780679", "about": "(Inorganic chemistry, 2015)", "molecular_target": "HydG (So HydG, WT HydG) (Shewanella oneidensis, UniProt Q8EAH9)", "assay": "X-band CW EPR of the [4Fe-4S]RS cluster", "format": "binding", "settings": "pH 7.5, 10 K; [4Fe-4S]RS cluster site", "data": [{"compound": "C[S+](CC[C@H](N)C(=O)O)C[C@H]1O[C@@H](n2cnc3c(N)ncnc32)[C@H](O)[C@@H]1O", "note": "(stereo partly drawn) [SAM, S-adenosyl-L-methionine]", "values": [{"measurement": "X-band CW EPR of the [4Fe-4S]RS cluster", "result": "interaction between the HydG [4Fe–4S]RS cluster and the substrates, Tyr or SAM"}]}]}
